# How the values were obtained:
# [1] = system: opiate blocker; withdrawal symptoms; experiment: Naltrexone given after the end of buprenorphine treatment (precipitated withdrawal)
# Procedure: Since naltrexone is administered following the cessation of narcotic, there can be no residual narcotic in a patient's system, otherwise the naltrexone will push the patient into withdrawal. Therefore, the patient must wait about a week before to start naltrexone, even with extremely low doses, doses that may be considered to be homeopathic but are high enough to cause withdrawal symptoms if the narcotic is not fully washed out.
# smoking cessation = settings: very large reduction steps; cited from earlier work
# [2] = system: physical dependence to opioids and related substances; experiment: Multidose tapering of buprenorphine in opiate-dependent patients (cessation success, withdrawal symptoms); type: in vivo; settings: for Successful, percent of total patients: calculated blood level reduction no greater than 5% from previous period
# Text: After several years of clinical experience in the use of buprenorphine, it became clear that a single dose in mg of buprenorphine given over a short period of time would not lead to a drug-free status. […]. If the dose is reduced rapidly, the patient reacts with both physical and emotional symptoms of withdrawal. By reducing the dose slowly, the patients experience a period where there is little or no decline in biologically available narcotic and thus feel more secure as they are not experiencing even minor withdrawal symptoms.
# Commercially available buprenorphine (Suboxone® & Subutex®) is available in strengths of 8.0 mg as well as 2.0 mg. However, that these medications would not suffice for a successful program, because the 2.0 mg dose was too large and too steep cut-off. […]. During inception of development of multidose treatment that led to the current invention, and using the then current state of art, buprenorphine troches for the treatment (not maintenance) of opiate dependence was used on a patient that was a person who was using I.V. 5-8 bags of heroin daily. They were started on 3 mg of buprenorphine and remained on this dose for three days. After a two day period without opiates, an attempt was made to administer the opiate blocker naltrexone which was intended to assure that a person is indeed drug free and remained so.
# Many alterations in treatment protocols to prevent withdrawal were made. The alterations included a greater variety of doses ranging from 8.0 to 4.0 mg administered in a deceasing amount over time. At first the dose strengths varied from 8.0 mg administered once daily with a daily reduction of 2.0 mg until to 4.0 mg, and then to 2.0 mg.
# A 6.0 mg dose was then added to the protocol. This lengthened the withdrawal period from three days to seven. This change was occasioned by the observation that the drop from 8.0 mg to 4.0 mg was all too frequently accompanied by a significant return of withdrawal symptoms and, at times, a return to use.
# Despite these alterations in the treatment protocol the results were still not what were expected. The observation was made that a cut-off of 2.0 mg would cause a return of withdrawal symptoms within 24 hrs and thus the likelihood of a return to drug use before naltrexone could be started. […] As a result, a 1.0 mg lozenges were administered
# A fractional buprenorphine dose was administered to reduce the severity of withdrawal symptoms. This strategy was in response to ongoing withdrawal symptoms following the “conclusion” of withdrawal or a “final” 3.0 mg dose of buprenorphine. To mitigate the withdrawal symptoms, a dose of 1.5 mg of buprenorphine was given to the patient. This particular treatment was unsuccessful as the ongoing withdrawal symptoms were too difficult for the patient who relapsed as a result.
# Stepwise increments were amended to proceed in the sub 1.0 mg dose range. The taper at this time was 1.0 mg, 0.75 mg, 0.5 mg, to 0.25 mg then a four day period of blank troches followed by an upward taper of troches with naltrexone going from 0.5 mg of naltrexone to 10.0 mg of naltrexone. With serial doses of 0.25 mg of buprenorphine many patients continued to report perceptible and, in some cases, intolerable withdrawal symptoms.
# As a result of the ongoing objective patient observations and patient's subjective complaints of withdrawal symptoms, a 0.1 mg dose was introduced. Additionally, a dose of 1.5 mg as well as a dose of 0.75 mg was added to the dose progression series. Although withdrawal complaints were limited, they were still present, and generally in the late phases of treatment. […] A strategy of 0.1 mg decreases in dose was implemented when the patients reached the 4.0 mg dose range (i.e., 2.0 mg twice a day) and 0.01 mg deceases in the below 1.0 mg range. The effect of this change also to extended the withdrawal period to about six to eight weeks from four weeks. […]
compound,measurement,setting,value
O=C1CC[C@@]2(O)[C@H]3Cc4ccc(O)c5c4[C@@]2(CCN3CC2CC2)[C@H]1O5 [naltrexone],withdrawal symptoms caused by naltrexone,"[1]; 12.5 mg, up to five days after the end of buprenorphine treatment",causes a return of withdrawal symptoms
same,withdrawal symptoms caused by naltrexone,[1]; given after a two day period without opiates following 3 mg buprenorphine for three days,severe withdrawal symptoms
CN1CCCC1c1cccnc1 (stereo not shown) [nicotine],clinical success rates over placebo,smoking cessation,6-12%
buprenorphine hydrochloride,"Successful, percent of total patients",[2]; 1-30 treatment days,50.7%
same,"Successful, number of patients","[2]; 1-30 treatment days, total 75",38
same,"Successful, percent of total patients",[2]; 31-60 treatment days,75.0%
same,"Successful, number of patients","[2]; 31-60 treatment days, total 52",39
same,"Successful, percent of total patients",[2]; 61-90 treatment days,90.5%
same,"Successful, number of patients","[2]; 61-90 treatment days, total 21",19
same,success rates in achieving freedom from physical dependence to opioids and related substances,[2]; specific gradually decreasing but measured doses of replacement narcotic,≥ 90%
